# Results published in PMC10997755, “Discovery of a small-molecule inhibitor that traps Polθ on DNA and synergizes with PARP inhibitors” (Nature Communications, 2024).
# “And” between values parts separate entries of the source, which are not always exact repeats. Equal entries are not always repeated.
# Key:
# [1] = Metabolic stability in liver microsomes; assay type: in vitro ADME; settings: read-out: t1/2 liver microsomes
# [2] = system: Brca1^CC/CC MEFs; test: Clonogenic assay; assay type: cell-based, mouse; settings: for pooled Average (normalized) / Normalized: MEF CC; for pooled Average (normalized): pooled average of 3 experiments; for Normalized: single experiments 1-3, 0 micro M = 100; for survival relative to 0 uM / survival relative to 0 uM, mean of the four experiments: cc; for survival relative to 0 uM: 150 cells/well, experiments 2023-04-07 and 2023-04-13; for survival relative to 0 uM, mean of the four experiments: last block without head (mean of 4)
# Description: Cells were plated on six or twelve or twenty-four well plates. In six well plate, 1000 cells/ well of BRCA2 -/-, BRCA1 -/-, PALB2 mut and 500 cells/ well of wildtype pair was plated; In twelve well plate, 600 cells/ well of BRCA2 -/-, BRCA1 -/-, PALB2 mut and 400 cells/ well of wildtype pair was plated; In twenty-four well plate, 500 cells/ well of BRCA2 -/-, BRCA1 -/-, PALB2 mut and 300 cells/ well of wildtype pair was plated. […] The medium was replaced every 2 days until the colonies were ready for staining in 10–12 days. For staining: Medium was removed from plates, and cells were rinsed with PBS. Fixation was carried out with—Water: Ethanol: Acetic acid (5:4:1) for 30 min followed by staining of colonies with 0.5% crystal violet in Water: Ethanol (3:2) for 2 h at room temperature. The plates were rinsed with water and left for drying overnight at room temperature. Colonies were then counted and IC50 was calculated using results from 3 or more independent experiments. Response curves are shown as mean colony formation +/- S.E.M.
# [3] = target: T1, Polβ (Homo sapiens, UniProt P06746); test: Primer extension by recombinant Pols (selectivity); assay type: biochemical
# T1 construct: gift: Dr. Wilson (NIEHS)
# [4] = target: T2, Polθ-pol on DNA/RNA (Homo sapiens, UniProt O75417); test: Relative rate of ddCMP addition on DNA/RNA; assay type: biochemical; settings: for Average % Extension (Single nt) / % Extension (Single nt) / % Extension of Control: RNA template; for Average % Extension (Single nt) / % Extension (Single nt): 2uM RTX-161; for Average % Extension (Single nt): average of 3 trials; for % Extension (Single nt) / % Extension of Control: single trials 1-3; for % Extension of Control: 2uM RTX-161 relative to DMSO
# T2 construct: purified recombinant human Polθ-pol (comprising amino acid residues 1792–2590); made in house
# T2 sequence (O75417 1792-2590): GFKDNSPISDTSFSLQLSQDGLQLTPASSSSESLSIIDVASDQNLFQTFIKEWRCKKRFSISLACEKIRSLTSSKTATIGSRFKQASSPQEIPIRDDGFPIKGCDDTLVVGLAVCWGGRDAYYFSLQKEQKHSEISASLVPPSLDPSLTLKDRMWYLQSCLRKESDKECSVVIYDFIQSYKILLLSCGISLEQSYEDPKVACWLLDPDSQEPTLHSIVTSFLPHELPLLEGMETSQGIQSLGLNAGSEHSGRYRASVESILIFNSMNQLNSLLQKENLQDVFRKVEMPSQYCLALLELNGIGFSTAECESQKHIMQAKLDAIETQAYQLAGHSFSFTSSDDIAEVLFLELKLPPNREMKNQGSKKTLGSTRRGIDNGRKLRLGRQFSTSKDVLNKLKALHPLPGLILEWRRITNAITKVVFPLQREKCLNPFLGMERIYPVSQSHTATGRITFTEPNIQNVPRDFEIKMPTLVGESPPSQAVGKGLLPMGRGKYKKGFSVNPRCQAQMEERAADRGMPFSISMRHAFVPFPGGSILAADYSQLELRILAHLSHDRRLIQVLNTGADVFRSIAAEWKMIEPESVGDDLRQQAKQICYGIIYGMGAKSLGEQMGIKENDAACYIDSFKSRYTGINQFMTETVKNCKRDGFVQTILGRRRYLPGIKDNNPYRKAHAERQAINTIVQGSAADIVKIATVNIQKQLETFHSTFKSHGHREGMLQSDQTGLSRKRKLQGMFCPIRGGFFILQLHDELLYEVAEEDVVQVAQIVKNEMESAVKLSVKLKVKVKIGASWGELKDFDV
# Description: Relative rate of Polθ-pol dAMP addition. The relative rates of dAMP incorporation by Polq-pol in the presence of DMSO or MC160385 with various concentrations of dATP were measured using the following primer extension assay in vitro. 2 nM or Polθ-pol was incubated with 5’ ^32P-γ-ATP labeled 100 nM primer-template (RP469D/RP486) in 1X buffer (25 mM TrisHCl pH 7.8, 0.01% NP40, 10% glycerol, 1 mM DTT, 10 mM MgCl2, 0.1 mg/ml BSA) at room temp. 2.5% DMSO, 7.5 nM or 12 nM of MC160385 was added. Reactions were than initiated by the addition of 20, 50, 100, 200, or 300 μM dATP at room temp. Aliquots of the reactions were removed and terminated by the addition of 50 mM EDTA at 3, 3.5, 4 and 5 min after the reaction was initiated. Radio-labeled DNA was then resolved via denaturing 20% PAGE and visualized by Typhoon PhosphorImager (GE Amersham). Rates of dAMP incorporation were calculated from % extension of the prime-template which was determined using ImageJ software. Relative rate of ddCMP addition on DNA/DNA and DNA/RNA. 25 nM nucleic acid DNA/DNA or DNA/RNA primer-template (RP559/RP702 or RP559/RP702R) was mixed with 1X reaction buffer (20 mM TrisHCl pH 7.5, 0.01% NP-40, 0.5 mM DTT, 10% glycerol, 0.1 mg/ml BSA, 10 mM MgCl2) in the presence of 250 μM ddCTP at room temp. Next, 2 μM RTx-161 or 2.5% DMSO was added. Reactions were initiated by the addition of 10 nM Polθ-pol. Reaction aliquots were removed and terminated by the addition of 50 mM EDTA at the indicated time points. Radio-labeled DNA was then resolved via denaturing 20% PAGE and visualized by Typhoon PhosphorImager. Percent primer extension by single ddCMP addition at each time point was calculated from % extension of the prime-template which was determined using ImageJ software.
compound,measurement,setting,value
CN(C(=O)Oc1ccc(C(F)(F)F)cc1C(F)(F)F)c1ccc(F)cc1 [MC160385],half-life,[1],6.2 min
CN(C(=O)Oc1c(N2CCN(CCO)C2=O)cc(C(F)(F)F)cc1C(F)(F)F)c1ccc(F)cc1 [RTx-161],pooled Average (normalized),[2]; RTX-161 2.5 micro M,50.51
same,Normalized,[2]; RTX-161 2.5 micro M,61.5322 and 50 and 40
same,Normalized,[2]; RTX-161 5 micro M,48.9756 and 28.3333 and 33.3333
same,pooled Average (normalized),[2]; RTX-161 10 micro M,33.4
same,pooled Average (normalized),[2]; RTX-161 20 micro M,18.83
same,survival relative to 0 uM,[2]; RTx-161 1.25 uM,84.85% and 90.38%
same,survival relative to 0 uM,[2]; RTx-161 2.5 uM,72.73% and 53.85%
same,survival relative to 0 uM,[2]; RTx-161 5 uM,60.61% and 50.00%
same,survival relative to 0 uM,[2]; RTx-161 10 uM,51.52% and 57.69%
same,survival relative to 0 uM,[2]; RTx-161 20 uM,39.39% and 48.08%
same,"survival relative to 0 uM, mean of the four experiments",[2]; RTx-161 1.25 uM,86.23%
same,"survival relative to 0 uM, mean of the four experiments",[2]; RTx-161 2.5 uM,67.71%
same,"survival relative to 0 uM, mean of the four experiments",[2]; RTx-161 5 uM,56.39%
same,"survival relative to 0 uM, mean of the four experiments",[2]; RTx-161 10 uM,54.03%
same,"survival relative to 0 uM, mean of the four experiments",[2]; RTx-161 20 uM,47.47%
same,selective killing of Brca1^cc/cc MEFs,[2]; versus Brca1-WT MEFs,selective killing
same,% Full Extension,[3]; Pol Beta,84.31%
same,% Inhibition Compared to Control,[3]; Pol Beta,-0.98%
same,% Relative Maximum Extension,[3]; Pol Beta,100.98%
same,inhibition of primer extension,"[3]; selectivity panel, Pol named in Supplementary Fig. 1h",no inhibition
same,inhibition of single nucleotide incorporation on DNA/RNA,"[4]; 2 μM RTx-161, open conformation",failed to significantly inhibit
same,Average % Extension (Single nt),[4]; Time 0,0.00%
same,% Extension (Single nt),[4]; Time 0,0.00%
same,Average % Extension (Single nt),[4]; Time 5,4.59%
same,% Extension (Single nt),[4]; Time 5,2.50% and 5.50% and 5.76%
same,Average % Extension (Single nt),[4]; Time 10,7.95%
same,% Extension (Single nt),[4]; Time 10,4.80% and 9.47% and 9.59%
same,Average % Extension (Single nt),[4]; Time 20,16.13%
same,% Extension (Single nt),[4]; Time 20,15.85% and 16.30% and 16.24%
same,Average % Extension (Single nt),[4]; Time 40,27.98%
same,% Extension (Single nt),[4]; Time 40,29.57% and 26.15% and 28.23%
same,% Extension of Control,[4]; Time 5,47.30% and 65.75% and 74.39%
same,% Extension of Control,[4]; Time 10,39.83% and 67.79% and 72.59%
same,% Extension of Control,[4]; Time 20,72.60% and 71.13% and 71.98%
same,% Extension of Control,[4]; Time 40,79.52% and 73.56% and 82.47%
